According to PubChem BioAssay AID489027 (Sanford-Burnham Center for Chemical Genomics, 2010):
The source made the active and inactive calls. No rule for the calls is given here.

target: UPR counterscreen luciferase reporter, luminescence; assay: luciferase reporter activation, UPR counterscreen line – cell-based, luminescence, counter-screen for adaptive UPR activator project, dose response (AID 489027)

SMILES | EC50
COc1ccc2[nH]c3nc(SCc4nnc(-c5ccc(C)cc5)o4)nnc3c2c1 | 19.7 µM
Cc1cc(NC(=O)c2cc(-c3ccccn3)nc3ccc(Br)cc23)no1 | > 80 µM (inactive)
CCc1nn(-c2cc(Oc3cccc4ccccc34)nc(-c3ccccc3)n2)c(N)c1C#N | > 80 µM (inactive)
COc1cc(-c2ccc3oc(-c4ccsc4)cc3c2)cc(OC)c1OC | > 80 µM (inactive)
CCOc1ccc2nc(NC3=NC(c4ccc(OC)cc4)CC(=O)N3)nc(C)c2c1 (stereo not drawn) | 11.8 µM
Cc1ccc(NC(=O)CSc2nc3ccccc3c3nc4ccccc4n23)cc1 | 6.26 µM
Cc1ccc(C(=O)N2N=C(c3ccc(Br)cc3)CC2c2ccccc2O)cc1 (stereo not drawn) | 14.3 µM
Cc1cccc(NC(=O)c2nc[nH]c2C(=O)Nc2ccccc2[N+](=O)[O-])c1 | > 80 µM (inactive)
CCOC(=O)c1ccc(-c2ccc(/C=N/NC(=O)CN(c3cccc(C)c3)S(C)(=O)=O)o2)cc1 | 15.5 µM
Cn1c(=O)c2c(SCC(=O)Nc3ccccc3F)nc(-c3ccccc3F)nc2n(C)c1=O | inactive
Cc1cccc(N2CCN(C(=S)Nc3ccc4nc(N5CCN(C)CC5)cc(C)c4c3)CC2C)c1 (stereo not drawn) | > 80 µM (inactive)
OC(CNCC1CCCO1)Cn1c2ccc(Br)cc2c2cc(Br)ccc21 (stereo not drawn) | > 80 µM (inactive)
CCOc1ccc(C(=O)Nc2ccc(NC(=O)c3ccco3)c(Cl)c2)cc1Cl | 8.74 µM
Cc1nc(SCC(=O)Nc2ccc(F)cc2)c(C#N)c(C)c1CC(=O)c1ccc(Br)cc1 | > 80 µM (inactive)
CCN(CC)S(=O)(=O)c1ccc(N/N=C(\C)c2ccc3c(c2)OCO3)c([N+](=O)[O-])c1 | inactive
NC1=NC[C@@H](CC2CCCCC2)N1CCc1cc(C(F)(F)F)cc(C(F)(F)F)c1 | > 80 µM (inactive)
Cc1cc(NC(=O)CSc2ccc(-c3nc4cc(C)c(C)cc4[nH]3)cn2)no1 | inactive
N#CCC(=O)N/N=C/c1cn(Cc2cccc3ccccc23)c2ccccc12 | > 80 µM (inactive)
COc1cc(SC#N)ccc1N=Cc1c(C)[nH]n(-c2ccc(C)c(C)c2)c1=O | 17.4 µM

SMILES | EC50
OCCNc1nc(Nc2ccc(Cl)c(Cl)c2)nc2ccccc12 | 10.8 µM
O=C(Nc1ccc(Br)cc1)c1cc(-c2ccncc2)nc2ccccc12 | 12.7 µM
COc1ccc(-c2csc(NC(=S)NC(=O)/C=C/c3ccccc3)n2)cc1Br | inactive
O=C(Nc1ccc(NC(=O)c2sc3ccccc3c2Cl)cc1Cl)c1ccco1 | inactive
O=C(NCCc1ccc(O)c(O)c1)C1COc2ccccc2O1 (stereo not drawn) | 16.8 µM
Cc1ccc(S(=O)(=O)Cc2cc(F)c([N+](=O)[O-])cc2[N+](=O)[O-])cc1 | > 80 µM (inactive)
N#Cc1c(-c2ccc3c(c2)OCO3)ccn2nc(-c3cccc(C(F)(F)F)c3)nc12 | inactive
CCOC(=O)C1=C(C)N=C2SC(C(=O)OC)=CC(=O)N2C1c1ccc(F)cc1 (stereo not drawn) | > 80 µM (inactive)
O=S(=O)(c1ccc2nc(-c3ccccc3)[nH]c2c1)N1CCN(c2ccc(Cl)cc2)CC1 | > 80 µM (inactive)
COc1ccc(C(=O)/C=C/c2cccs2)c(OC(=O)c2cccc([N+](=O)[O-])c2)c1 | inactive
CC1=CC(C)(C)N2C(=O)C(=O)c3cc(OC(=O)c4ccco4)cc1c32 | inactive
COc1cc(SC#N)ccc1N=Cc1c(C)[nH]n(-c2ccc(Cl)cc2)c1=O | 7.41 µM
O=C(Nc1nc(-c2ccc3ccccc3c2)cs1)c1ccc(N2C(=O)CCC2=O)cc1 | > 80 µM (inactive)
CCOC(=O)c1c(NC(=O)c2cc3n(n2)C(C(F)(F)F)CC(c2cccs2)N3)sc(C)c1C (stereo not drawn) | 8.7 µM
COc1ccc(C(CCNC(C)c2ccccc2)c2ccc(F)cc2)cc1 (stereo not drawn) | inactive
CN(C)CCCN(C(=O)c1ccc(S(=O)(=O)N2CCCCCC2)cc1)c1nc2ccc(Br)cc2s1 | 12.7 µM
CCC(=O)Nc1cccc(C(=O)/C=C/c2ccc(F)cc2)c1 | 12.1 µM
Cc1nc(NC(=O)CSc2ccc(-c3nc4ccccc4[nH]3)cn2)sc1C | inactive
Cc1ccc(-c2cc(C(F)F)n3ncc(C(=O)N4CCc5ccccc54)c3n2)cc1 | > 80 µM (inactive)
